Test systems include HOP-92; LXFL 529; RPMI-8226; XF498; SR; OVCAR-5; CAKI-1; TK-10; HL-60; NCI-H23; CCRF-CEM; DLD-1; SNB-78; U-251; SK-MEL-28; SF-539; SF-268; OVCAR-8; HOP-18; DMS-114.
What all share (test): growth of human tumour cells (NCI), 48 h

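Values below derive from 48-hour exposures of cells grown in 96-well plates, with endpoints linearly interpolated between the two concentrations bracketing the appropriate inhibition level. The concentration for 50% growth inhibition is given as GI50.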 Calls of active or inactive are those of the source. Rule as the data show it: active = GI50 up to about 1.1 µM and inactive = higher.

On to `CNC(=O)CN1CC(=O)N(C)C(=O)C1`, for which the GI50 with HOP-92, in the test with LXFL 529, in the test with RPMI-8226, in the test on XF498, in the test with SR and in the test with OVCAR-5 was > 100 µM (inactive) throughout. In addition, the GI50 in the test with CAKI-1, in the test on TK-10, with HL-60, in the test with NCI-H23, in the test on CCRF-CEM and in the test on DLD-1 was > 100 µM (inactive) throughout. Moreover, the GI50 in the test on SNB-78, in the test on U-251 and in the test on SK-MEL-28 was > 100 µM (inactive) throughout.

`COc1ccc(Oc2ccccc2N)cc1`: the GI50 with HOP-92 was 96.2 µM (inactive); in the test on LXFL 529 it was 10.4 µM (inactive); in the test with RPMI-8226 it was 31.8 µM (inactive); in the test with SR, 18.3 µM (inactive); with SF-539, 20.2 µM (inactive); in the test with OVCAR-5 it was 48.6 µM (inactive). Moreover, the GI50 with SF-268 was 42.1 µM (inactive); in the test with HL-60, 21 µM (inactive); in the test on NCI-H23, 43 µM (inactive); in the test with CCRF-CEM, 10.7 µM (inactive); in the test on DLD-1, 30 µM (inactive); with SNB-78, > 100 µM (inactive). Besides, the GI50 in the test with U-251 is 12.4 µM (inactive); with SK-MEL-28 it was 28.2 µM (inactive); in the test on OVCAR-8, 56.2 µM (inactive); in the test on HOP-18 it was > 100 µM (inactive); in the test with DMS-114 it was 37.2 µM (inactive).

With `Nc1cc(-c2ccccc2)nn1-c1nsc2ccccc12`, the GI50 in the test on HOP-92 is 63.4 µM (inactive); with LXFL 529 it was > 100 µM (inactive); in the test on RPMI-8226, 76.9 µM (inactive); with SR, 53.2 µM (inactive); in the test on SF-539, > 100 µM (inactive); in the test on OVCAR-5, > 100 µM (inactive). The GI50 was 58.9 µM (inactive) with SF-268; > 100 µM (inactive) in the test with TK-10; 61.8 µM (inactive) with HL-60; > 100 µM (inactive) in the test on NCI-H23; 21.6 µM (inactive) in the test with CCRF-CEM; 68.1 µM (inactive) with SNB-78. For the same compound, the GI50 is 54.2 µM (inactive) in the test with U-251; 98.4 µM (inactive) in the test with SK-MEL-28; 92.9 µM (inactive) in the test on OVCAR-8; 0.573 µM (active) in the test with HOP-18; > 100 µM (inactive) with DMS-114.

Consider `CC1(C)Cc2c(C#N)c(N)c3c(c2CO1)C(=O)OC3=O`, for which the GI50 with LXFL 529, with RPMI-8226, with XF498, in the test with SR, with SF-539 and with OVCAR-5 was > 100 µM (inactive) throughout. The GI50 with CAKI-1, in the test with SF-268, with TK-10, with HL-60, in the test on NCI-H23 and in the test with CCRF-CEM was > 100 µM (inactive) in each case. For the same compound, the GI50 in the test on U-251, in the test with SK-MEL-28, in the test on OVCAR-8, in the test on HOP-18 and in the test with DMS-114 was > 100 µM (inactive) each time.

As for `CCC(=C(C#N)C#N)c1cc(OC)c(OC)c(OC)c1`, the GI50 with HOP-92 was 95.1 µM (inactive); with LXFL 529, > 100 µM (inactive); in the test on RPMI-8226, 15.6 µM (inactive); in the test with XF498, > 100 µM (inactive); in the test with SR, > 100 µM (inactive); with SF-539, > 100 µM (inactive). Moreover, the GI50 in the test with OVCAR-5 was > 100 µM (inactive); in the test with CAKI-1 it was > 100 µM (inactive); in the test on SF-268 it was > 100 µM (inactive); in the test on TK-10, > 100 µM (inactive); in the test with HL-60, 22.1 µM (inactive); in the test with NCI-H23, > 100 µM (inactive). For the same compound, the GI50 in the test with CCRF-CEM, in the test on DLD-1, in the test with U-251, in the test on SK-MEL-28, with OVCAR-8 and in the test on HOP-18 was > 100 µM (inactive) throughout. For the same compound, in the test on DMS-114, the GI50 is > 100 µM (inactive).

With `O=C(O)CCC(NC(=O)c1ccc(Nc2nc3cc(C(F)(F)F)ccc3nc2-c2ccccc2)cc1)C(=O)O` (stereo unspecified), the GI50 with HOP-92 was > 52.6 µM (inactive); in the test on RPMI-8226 it was > 63.1 µM (inactive); in the test with XF498 it was > 78.2 µM (inactive); in the test on SF-539, > 84.7 µM (inactive); in the test on OVCAR-5, 63.5 µM (inactive); with SF-268, > 100 µM (inactive). Moreover, the GI50 in the test on HL-60 was 84.3 µM (inactive); in the test on NCI-H23, > 100 µM (inactive); in the test with CCRF-CEM, 97.3 µM (inactive); in the test on DLD-1, > 76 µM (inactive); in the test on SNB-78 it was > 95.9 µM (inactive); in the test with U-251, 67.1 µM (inactive). In addition, the GI50 in the test with SK-MEL-28, with OVCAR-8, with HOP-18 and in the test on DMS-114 was > 100 µM (inactive) each time.
